Laboratory results reported in US20220370317A1, “COMPOSITION FOR SKIN WHITENING, COMPRISING CARVONE OR SALT THEREOF AS ACTIVE INGREDIENT” (BOTANICSENS, priority 2019, published 2022).
Read-outs that look alike come from different tables or passages of the source.

Legend:
[1] = oral, rats; cited from earlier work
[2] = test system: MITF (microphthalmia transcription factor); assay: RNA extraction and quantitative PCR assay, MITF expression; type: cell-based; details: B6F10 melanocytes, α-MSH plus carvone, vs α-MSH control cells
Protocol: (§1) B6F10 melanocytes were cultured in DMEM containing 10% FBS at 37° C. under 5% CO2, and then the cells were dispensed into a 6-well plate at a density of 1×10^5 cells/well and attached thereto. As normal cells, cells not treated with α-MSH that induces melanogenesis were used, and as control cells, cells treated with α-MSH (100 nM) were used. The cells cultured under the above conditions were treated with α-MSH (100 nM) plus carvone (100 μM) and cultured for 48 hours. […] Using the cDNA obtained through reverse transcription as a template and using the [NT] flanking sequences of the gene cDNA to be amplified as primers, quantitative PCR was performed using iQ SYBR green supermix (Bio-Rad) and CFX ConnectTM Real-Time PCR Detection System (Bio-Rad). [table]

[3] = transdermal; cited from earlier work
B6F10 melanocytes = assay: Measurement of melanin production in cells (α-MSH-induced melanogenesis); type: cell-based; details: α-MSH (100 nM) plus carvone (100 μM), 48 hours
Protocol: B16F10 melanocytes were purchased from ATCC (Manassas, Va., USA), and the purchased cells were cultured using DMEM (Dulbecco's Modified Eagle's Media) containing 10% FBS (fetal bovine serum) in an incubator at 37° C. under 5% CO2. B6F10 melanocytes were cultured in DMEM containing 10% FBS at 37° C. under 5% CO2, and then the cells were dispensed into a 6-well plate at a density of 1×10^5 cells/well and attached thereto. […] After washing twice with PBS (phosphate buffered saline), the cells were harvested. The harvested cells were centrifuged at 1,000 rpm for 5 minutes, and then the color of the pellet was visually observed. Thereafter, the cell pellet was lysed by adding 200 μL of 1N NaOH solution containing 10% DMSO, and then the absorbance at 400 nm was measured with a microplate reader.

[4] = in water and ethanol; cited from earlier work
Tyrosinase = assay: RNA extraction and quantitative PCR assay, tyrosinase expression; type: cell-based; details: B6F10 melanocytes, α-MSH plus carvone, vs α-MSH control cells
Protocol: as §1

## C=C(C)C1CC=C(C)C(=O)C1 (stereo not shown) [carvone]
[1]
  LD50: 1,640 mg/kg
[2]
  decrease of MITF expression compared to control cells: 36%
[3]
  LD50: ≥ 4,000 mg/kg
B6F10 melanocytes; absorbance at 400 nm, vs α-MSH control cells
  decrease of melanin content compared to control cells: 29%
B6F10 melanocytes; compared to control cells treated with only α-MSH
  pellet color of cells, visually observed: significantly paler
[4]
  solubility: well soluble
Tyrosinase
  decrease of tyrosinase expression compared to control cells: 31%
